Experimental data as given in patent US20260262643A1, “HERBICIDAL BENZOXAZINES” (FMC CORPORATION, priority 2022, published 2026).

Columns and labels:
corn [1] = assay: Test C postemergence; type: in vivo, Zea mays; settings: 10 days
Method in brief: (§1)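 Soil-applied (pre) and foliar (post, 1–2 leaf, 2–10 cm) sprays; surfactant-containing non-phytotoxic solvent vehicle; loam/sand substrate. Readout: visual % control at 10 d, greenhouse, versus untreated.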

ragweed [2] = assay: Test C postemergence; type: in vivo, Ambrosia artemisiifolia; settings: 10 days
Method in brief: as §1

corn [3] = assay: Test C preemergence; type: in vivo, Zea mays; settings: 0 to 100 scale (0 no effect, 100 complete control); for Corn plant response rating: preemergence
Method in brief: as §1

ducksalad = assay: Test D flooded paddy test; type: in vivo, Heteranthera limosa; settings: 250 g ai/ha, applied to paddy water, visual rating after 13 to 14 days, scale 0 to 100 (0 no effect, 100 complete control)
Method in brief: (§2)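 Seedlings reached the 2-leaf stage, then pots were flooded to 3 cm over the soil surface. Compound was applied into the water, depth was maintained, and plants stayed in the greenhouse 13 to 14 days before visual scoring (0–100) relative to controls.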

rice = assay: Test D flooded paddy test; type: in vivo, Oryza sativa; settings: 250 g ai/ha, applied to paddy water, visual rating after 13 to 14 days, scale 0 to 100 (0 no effect, 100 complete control)
Method in brief: as §2

wheat [4] = assay: Test C preemergence; type: in vivo, Triticum aestivum; settings: 0 to 100 scale (0 no effect, 100 complete control); for Wheat plant response rating: preemergence
Method in brief: as §1

goosegrass [5] = assay: Test C preemergence; type: in vivo, Eleusine indica; settings: 0 to 100 scale (0 no effect, 100 complete control); for Goosegrass plant response rating: preemergence
Source text: (§3) Seeds of plant species selected from barnyardgrass (Echinochloa crusgalli), blackgrass (Alopecurus myosuroides), corn (Zea mays), foxtail, giant (giant foxtail, Setaria faberi), green foxtail (Setaria viridis), goosegrass (Eleusine indica), kochia (Bassia scoparia), oat, wild (wild oat, Avena fatua), pigweed, palmer (palmer amaranth, palmer pigweed, Amaranthus palmeri), Pigweed, Redroot (redroot pigweed, Amaranthus retroflexus), ragweed (common ragweed, Ambrosia artemisiifolia), ryegrass, Italian ([…] ryegrass, Lolium multiflorum), soybean (Glycine max), and wheat (Triticum aestivum) were planted into a blend of loam soil and sand and treated preemergence with a directed soil spray using test chemicals formulated in a non-phytotoxic solvent mixture which included a surfactant. At the same time, plants selected from these crops and weed species and also galium (catchweed bedstraw, Galium aparine) and horseweed (Erigeron canadensis) were planted in pots containing the same blend of loam soil and sand and treated with postemergence applications of test chemicals formulated in the same manner. Plants ranged in height from 2 to 10 cm and were in the one- to two-leaf stage for the postemergence treatment. Treated plants and untreated controls were maintained in a greenhouse for 10 days, after which time all treated plants were compared to untreated controls and visually evaluated for injury. Plant response ratings, summarized in Table C, are based on a 0 to 100 scale where 0 is no effect and 100 is complete control. A dash (-) response means no test result.

blackgrass [6] = assay: Test C preemergence; type: in vivo, Alopecurus myosuroides; settings: 0 to 100 scale (0 no effect, 100 complete control); for Blackgrass plant response rating: preemergence
Method in brief: as §1

ragweed [7] = assay: Test C preemergence; type: in vivo, Ambrosia artemisiifolia; settings: 0 to 100 scale (0 no effect, 100 complete control); for Ragweed plant response rating: preemergence
Method in brief: as §1

horseweed = assay: Test C postemergence; type: in vivo, Erigeron canadensis; settings: 10 days
Method in brief: as §1

goosegrass [8] = assay: Test C postemergence; type: in vivo, Eleusine indica; settings: 10 days
Source text: as §3

oat, wild [9] = assay: Test C preemergence; type: in vivo, Avena fatua; settings: 0 to 100 scale (0 no effect, 100 complete control); for Oat, Wild plant response rating: preemergence
Method in brief: as §1

ryegrass, Italian [10] = assay: Test C postemergence; type: in vivo, Lolium multiflorum; settings: 10 days
Method in brief: as §1

oat, wild [11] = assay: Test C postemergence; type: in vivo, Avena fatua; settings: 10 days
Method in brief: as §1

soybean [12] = assay: Test C preemergence; type: in vivo, Glycine max; settings: 0 to 100 scale (0 no effect, 100 complete control); for Soybean plant response rating: preemergence
Method in brief: as §1

kochia [13] = assay: Test C postemergence; type: in vivo, Bassia scoparia; settings: 10 days
Method in brief: as §1

sedge, umbrella = assay: Test D flooded paddy test; type: in vivo, Cyperus difformis; settings: 250 g ai/ha, applied to paddy water, visual rating after 13 to 14 days, scale 0 to 100 (0 no effect, 100 complete control)
Method in brief: as §2

pigweed, palmer [14] = assay: Test C preemergence; type: in vivo, Amaranthus palmeri; settings: 0 to 100 scale (0 no effect, 100 complete control); for Pigweed, Palmer plant response rating: preemergence
Method in brief: as §1

kochia [15] = assay: Test C preemergence; type: in vivo, Bassia scoparia; settings: 0 to 100 scale (0 no effect, 100 complete control); for Kochia plant response rating: preemergence
Method in brief: as §1

blackgrass [16] = assay: Test C postemergence; type: in vivo, Alopecurus myosuroides; settings: 10 days
Method in brief: as §1

barnyardgrass = assay: Test D flooded paddy test; type: in vivo, Echinochloa crus-galli; settings: 250 g ai/ha, applied to paddy water, visual rating after 13 to 14 days, scale 0 to 100 (0 no effect, 100 complete control)
Method in brief: as §2

wheat [17] = assay: Test C postemergence; type: in vivo, Triticum aestivum; settings: 10 days
Method in brief: as §1

galium = assay: Test C postemergence; type: in vivo, Galium aparine; settings: 10 days
Method in brief: as §1

pigweed, palmer [18] = assay: Test C postemergence; type: in vivo, Amaranthus palmeri; settings: 10 days
Method in brief: as §1

soybean [19] = assay: Test C postemergence; type: in vivo, Glycine max; settings: 10 days
Method in brief: as §1

foxtail, giant [20] = assay: Test C postemergence; type: in vivo, Setaria faberi; settings: 10 days
Method in brief: as §1

ryegrass, Italian [21] = assay: Test C preemergence; type: in vivo, Lolium multiflorum; settings: 0 to 100 scale (0 no effect, 100 complete control); for Ryegrass, Italian plant response rating: preemergence
Method in brief: as §1

foxtail, giant [22] = assay: Test C preemergence; type: in vivo, Setaria faberi; settings: 0 to 100 scale (0 no effect, 100 complete control); for Foxtail, Giant plant response rating: preemergence
Method in brief: as §1

[23] = 125 g ai/ha, postemergence, 0 to 100 scale, 0 no effect, 100 complete control
[24] = 500 g ai/ha, postemergence, 0 to 100 scale (0 no effect, 100 complete control)
[25] = Postemergence, 500 g ai/ha, visual 0 to 100 scale (0 no effect, 100 complete control)
[26] = Preemergence, 500 g ai/ha, visual rating after 10 days

SMILES: Cc1cccc2c1O[C@@H](C)CN2C(=O)c1cccc(-n2cnc(C#C[Si](C)(C)C)n2)c1 [Compound 284]
- Plant response rating, Corn (corn [1]; [23]): 0
- Plant response rating, Corn (corn [1]; [24]): 10
- Plant response rating, Ragweed (ragweed [2]; [23]): 0
- Plant response rating, Ragweed (ragweed [2]; [24]): 0
- Corn plant response rating (corn [3]; 500 g ai/ha): 0
- Corn plant response rating (corn [3]; Test C, 125 g ai/ha): 0
- Plant response rating, Ducksalad (Flood) (ducksalad): 65
- Plant response rating, Rice (Flood) (rice): 0
- Wheat plant response rating (wheat [4]; 500 g ai/ha): 10
- Wheat plant response rating (wheat [4]; Test C, 125 g ai/ha): 0
- Goosegrass plant response rating (goosegrass [5]; 500 g ai/ha): 90
- Goosegrass plant response rating (goosegrass [5]; Test C, 125 g ai/ha): 10
- Blackgrass plant response rating (blackgrass [6]; 500 g ai/ha): 60
- Blackgrass plant response rating (blackgrass [6]; Test C, 125 g ai/ha): 0
- Ragweed plant response rating (ragweed [7]; 500 g ai/ha): 0
- Ragweed plant response rating (ragweed [7]; Test C, 125 g ai/ha): 0
- Plant response rating, Horseweed (horseweed; [23]): 0
- Plant response rating, Horseweed (horseweed; [24]): 50
- Plant response rating, Goosegrass (goosegrass [8]; [23]): 10
- Plant response rating, Goosegrass (goosegrass [8]; [24]): 30
- Oat, Wild plant response rating (oat, wild [9]; 500 g ai/ha): 70
- Oat, Wild plant response rating (oat, wild [9]; Test C, 125 g ai/ha): 20
- Plant response rating, Ryegrass, Italian (ryegrass, Italian [10]; [23]): 0
- Plant response rating, Ryegrass, Italian (ryegrass, Italian [10]; [24]): 0
- Plant response rating, Oat, Wild (oat, wild [11]; [23]): 10
- Plant response rating, Oat, Wild (oat, wild [11]; [24]): 10
- Soybean plant response rating (soybean [12]; 500 g ai/ha): 0
- Soybean plant response rating (soybean [12]; Test C, 125 g ai/ha): 0
- Plant response rating, Kochia (kochia [13]; [23]): 10
- Plant response rating, Kochia (kochia [13]; [24]): 50
- Plant response rating, Sedge, Umbrella (Flood) (sedge, umbrella): 0
- Pigweed, Palmer plant response rating (pigweed, palmer [14]; 500 g ai/ha): 0
- Pigweed, Palmer plant response rating (pigweed, palmer [14]; Test C, 125 g ai/ha): 0
- Kochia plant response rating (kochia [15]; 500 g ai/ha): 10
- Kochia plant response rating (kochia [15]; Test C, 125 g ai/ha): 0
- Plant response rating, Blackgrass (blackgrass [16]; [23]): 0
- Plant response rating, Blackgrass (blackgrass [16]; [24]): 40
- Plant response rating, Barnyardgrass (Flood) (barnyardgrass): 0
- Plant response rating, Wheat (wheat [17]; [23]): 10
- Plant response rating, Wheat (wheat [17]; [24]): 10
- Plant response rating, Galium (galium; [23]): 70
- Plant response rating, Galium (galium; [24]): 90
- Plant response rating, Pigweed, Palmer (pigweed, palmer [18]; [23]): 40
- Plant response rating, Pigweed, Palmer (pigweed, palmer [18]; [24]): 60
- Plant response rating, Soybean (soybean [19]; [23]): 20
- Plant response rating, Soybean (soybean [19]; [24]): 30
- Plant response rating, Foxtail, Giant (foxtail, giant [20]; [23]): 10
- Plant response rating, Foxtail, Giant (foxtail, giant [20]; [24]): 20
- Ryegrass, Italian plant response rating (ryegrass, Italian [21]; 500 g ai/ha): 90
- Ryegrass, Italian plant response rating (ryegrass, Italian [21]; Test C, 125 g ai/ha): 50
- Foxtail, Giant plant response rating (foxtail, giant [22]; 500 g ai/ha): 90
- Foxtail, Giant plant response rating (foxtail, giant [22]; Test C, 125 g ai/ha): 0

SMILES: Cc1cccc2c1OC(C)CN2C(=O)c1cccc(-n2ncnc2C2CC2)c1 (racemic) [Compound 196]
- Plant response rating, Corn (corn [1]; [23]): 0
- Plant response rating, Corn (corn [1]; [25]): 0
- Plant response rating, Ragweed (ragweed [2]; [23]): 0
- Plant response rating, Ragweed (ragweed [2]; [25]): 0
- Plant response rating, Corn (corn [3]; [26]): 20
- Corn plant response rating (corn [3]; Test C, 125 g ai/ha): 0
- Plant response rating, Ducksalad (Flood) (ducksalad): 0
- Plant response rating, Rice (Flood) (rice): 0
- Plant response rating, Wheat (wheat [4]; [26]): 0
- Wheat plant response rating (wheat [4]; Test C, 125 g ai/ha): 0
- Plant response rating, Goosegrass (goosegrass [5]; [26]): 0
- Goosegrass plant response rating (goosegrass [5]; Test C, 125 g ai/ha): 0
- Plant response rating, Blackgrass (blackgrass [6]; [26]): 0
- Blackgrass plant response rating (blackgrass [6]; Test C, 125 g ai/ha): 0
- Plant response rating, Ragweed (ragweed [7]; [26]): 0
- Ragweed plant response rating (ragweed [7]; Test C, 125 g ai/ha): 0
- Plant response rating, Horseweed (horseweed; [23]): 0
- Plant response rating, Horseweed (horseweed; [25]): 0
- Plant response rating, Goosegrass (goosegrass [8]; [23]): 0
- Plant response rating, Goosegrass (goosegrass [8]; [25]): 0
- Plant response rating, Oat, Wild (oat, wild [9]; [26]): 0
- Oat, Wild plant response rating (oat, wild [9]; Test C, 125 g ai/ha): 0
- Plant response rating, Ryegrass, Italian (ryegrass, Italian [10]; [23]): 0
- Plant response rating, Ryegrass, Italian (ryegrass, Italian [10]; [25]): 0
- Plant response rating, Oat, Wild (oat, wild [11]; [23]): 0
- Plant response rating, Oat, Wild (oat, wild [11]; [25]): 0
- Plant response rating, Soybean (soybean [12]; [26]): 0
- Soybean plant response rating (soybean [12]; Test C, 125 g ai/ha): 0
- Plant response rating, Kochia (kochia [13]; [23]): 0
- Plant response rating, Kochia (kochia [13]; [25]): 0
- Plant response rating, Sedge, Umbrella (Flood) (sedge, umbrella): 0
- Plant response rating, Pigweed, Palmer (pigweed, palmer [14]; [26]): 0
- Pigweed, Palmer plant response rating (pigweed, palmer [14]; Test C, 125 g ai/ha): 0
- Plant response rating, Kochia (kochia [15]; [26]): 0
- Kochia plant response rating (kochia [15]; Test C, 125 g ai/ha): 0
- Plant response rating, Blackgrass (blackgrass [16]; [23]): 0
- Plant response rating, Blackgrass (blackgrass [16]; [25]): 0
- Plant response rating, Barnyardgrass (Flood) (barnyardgrass): 0
- Plant response rating, Wheat (wheat [17]; [23]): 0
- Plant response rating, Wheat (wheat [17]; [25]): 0
- Plant response rating, Galium (galium; [23]): 0
- Plant response rating, Galium (galium; [25]): 0
- Plant response rating, Pigweed, Palmer (pigweed, palmer [18]; [23]): 30
- Plant response rating, Pigweed, Palmer (pigweed, palmer [18]; [25]): 0
- Plant response rating, Soybean (soybean [19]; [23]): 0
- Plant response rating, Soybean (soybean [19]; [25]): 0
- Plant response rating, Foxtail, Giant (foxtail, giant [20]; [23]): 0
- Plant response rating, Foxtail, Giant (foxtail, giant [20]; [25]): 0
- Plant response rating, Ryegrass, Italian (ryegrass, Italian [21]; [26]): 0
- Ryegrass, Italian plant response rating (ryegrass, Italian [21]; Test C, 125 g ai/ha): 0
- Plant response rating, Foxtail, Giant (foxtail, giant [22]; [26]): 0
- Foxtail, Giant plant response rating (foxtail, giant [22]; Test C, 125 g ai/ha): 0
